Measured values published in patent US5852210A, “Cinnamic acid derivatives” (G. D. Searle & Co., priority 1997, dated 1998).
Where a name gives a salt, the structure may show the parent alone. Read-outs that look alike come from different tables or passages of the source.

Columns and labels:
[1] = target: T1, Human vitronectin receptor (αv β3) (Homo sapiens, UniProt P05106+P06756); test: Vitronectin adhesion assay (solid phase receptor assay, αvβ3); assay type: binding
T1 construct: Human vitronectin receptor (αv β3) was purified from human placenta; from tissue; host or cells: human placenta
T1 sequence (P06756 31-889 limits assumed): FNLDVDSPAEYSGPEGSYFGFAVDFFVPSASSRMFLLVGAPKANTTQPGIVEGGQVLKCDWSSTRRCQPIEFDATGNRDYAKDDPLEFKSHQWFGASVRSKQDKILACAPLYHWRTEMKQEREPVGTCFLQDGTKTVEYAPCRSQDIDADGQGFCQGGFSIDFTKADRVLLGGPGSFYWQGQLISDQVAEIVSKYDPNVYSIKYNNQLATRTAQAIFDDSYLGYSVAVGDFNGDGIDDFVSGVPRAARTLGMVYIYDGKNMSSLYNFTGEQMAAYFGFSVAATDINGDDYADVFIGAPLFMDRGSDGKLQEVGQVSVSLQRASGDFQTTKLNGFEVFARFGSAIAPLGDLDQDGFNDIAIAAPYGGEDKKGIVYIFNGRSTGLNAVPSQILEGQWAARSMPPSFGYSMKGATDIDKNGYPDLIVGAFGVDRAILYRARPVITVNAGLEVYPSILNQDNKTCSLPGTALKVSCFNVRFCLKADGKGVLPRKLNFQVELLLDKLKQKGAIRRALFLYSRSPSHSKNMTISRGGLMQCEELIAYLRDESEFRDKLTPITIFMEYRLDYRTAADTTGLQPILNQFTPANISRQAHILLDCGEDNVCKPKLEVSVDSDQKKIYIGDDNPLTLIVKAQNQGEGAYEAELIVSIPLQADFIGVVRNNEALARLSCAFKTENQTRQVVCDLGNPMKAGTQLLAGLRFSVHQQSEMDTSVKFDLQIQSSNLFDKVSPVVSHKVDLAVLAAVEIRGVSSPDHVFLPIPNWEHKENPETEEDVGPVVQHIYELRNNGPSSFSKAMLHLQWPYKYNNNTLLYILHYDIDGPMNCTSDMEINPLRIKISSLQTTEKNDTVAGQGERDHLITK
T1 sequence (P06756 891-1048 limits assumed): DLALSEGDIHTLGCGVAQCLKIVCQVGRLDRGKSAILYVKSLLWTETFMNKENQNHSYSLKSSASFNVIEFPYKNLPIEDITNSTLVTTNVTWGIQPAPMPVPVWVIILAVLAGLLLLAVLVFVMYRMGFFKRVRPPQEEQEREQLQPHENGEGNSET
T1 sequence (P05106 27-788): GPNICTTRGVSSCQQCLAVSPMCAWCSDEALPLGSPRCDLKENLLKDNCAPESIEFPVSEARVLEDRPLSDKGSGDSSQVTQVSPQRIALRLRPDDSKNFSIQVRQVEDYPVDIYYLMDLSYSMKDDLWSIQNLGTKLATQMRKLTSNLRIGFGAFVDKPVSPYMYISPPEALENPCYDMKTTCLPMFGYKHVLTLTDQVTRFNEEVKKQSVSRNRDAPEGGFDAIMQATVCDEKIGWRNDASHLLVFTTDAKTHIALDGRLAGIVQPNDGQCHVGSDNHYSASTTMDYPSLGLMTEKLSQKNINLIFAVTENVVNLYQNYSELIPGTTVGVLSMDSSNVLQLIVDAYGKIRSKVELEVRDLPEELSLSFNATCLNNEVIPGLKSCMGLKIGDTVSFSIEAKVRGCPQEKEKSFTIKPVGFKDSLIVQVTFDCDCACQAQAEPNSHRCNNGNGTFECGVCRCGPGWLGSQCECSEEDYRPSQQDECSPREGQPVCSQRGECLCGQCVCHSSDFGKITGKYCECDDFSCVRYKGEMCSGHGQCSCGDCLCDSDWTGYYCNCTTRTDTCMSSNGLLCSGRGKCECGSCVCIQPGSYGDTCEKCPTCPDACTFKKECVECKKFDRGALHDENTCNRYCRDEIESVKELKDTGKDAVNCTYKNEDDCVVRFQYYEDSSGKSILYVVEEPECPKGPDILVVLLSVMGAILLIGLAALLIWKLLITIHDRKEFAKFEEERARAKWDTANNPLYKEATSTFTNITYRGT
Description: (§1) The activity of the compounds of the present invention was tested in the following assays.
Human vitronectin receptor (αv β3) was purified from human placenta as previously described [Pytela et al., Methods in Enzymology, 144:475-489 (1987)]. Human vitronectin was purified from fresh frozen plasma as previously described [Yatohgo et al., Cell Structure and Function, 13:281-292 (1988)]. Biotinylated human vitronectin was prepared by coupling NHS-biotin from Pierce Chemical Company (Rockford, Ill.) to purified vitronectin as previously described [Charo et al., J. Biol. Chem., 266(3):1415-1421 (1991)]. Assay buffer, OPD substrate tablets, and RIA grade BSA were obtained from Sigma (St. Louis, Mo.). Anti-biotin antibody was obtained from Calbiochem (La Jolla, Calif.). Linbro microtiter plates were obtained from Flow Labs (McLean, Va.). ADP reagent was obtained from Sigma (St. Louis, Mo.).
(§2) Solid Phase Receptor Assays
This assay was essentially the same as previously reported [Niiya et al., Blood, 70:475-483 (1987)]. The purified human vitronectin receptor (αv β3) was diluted from stock solutions to […] in Tris-buffered saline containing 1.0 mM Ca^++, Mg^++, and Mn^++, pH 7.4 (TBS^+++). The diluted receptor was immediately transferred to Linbro microtiter plates at 100 μL/well (100 ng receptor/well). The plates were sealed and incubated overnight at 4° C. to allow the receptor to bind to the wells. All remaining steps were at room temperature. The assay plates were emptied and 200 μL, of 1% RIA grade BSA in TBS^+++ (TBS^+++ /BSA) were added to block exposed plastic surfaces. Following a 2 hour incubation, the assay plates were washed with TBS^+++ using a 96 well plate washer. Logarithmic serial dilution of the test compound and controls were made starting at a stock concentration of 2 mM and using 2 nM biotinylated vitronectin in TBS^+++ /BSA as the diluent. This premixing of labeled ligand with test (or control) ligand, and subsequent transfer of 50 μL aliquots to the assay plate was carried out with a CETUS Propette robot; the final concentration of the labeled ligand was 1 nM and the highest concentration of test compound was 1.0×10^-4 M. The competition occurred for two hours after which all wells were washed with a plate washer as before. Affinity purified horseradish peroxidase labeled goat anti-biotin antibody was diluted 1:3000 in TBS^+++ /BSA and 125 μL were added to each well. After 30 minutes, the plates were washed and incubated with OPD/H2 O2 substrate in 100 mM/L Citrate buffer, pH 5.0. The plate was read with a microtiter plate reader at a wavelength of 450 nm and when the maximum-binding control wells reached an absorbance of about 1.0, the final A450 were recorded for analysis. The data were analyzed using a macro written for use with the EXCEL™ spreadsheet program. The mean, standard deviation, and % CV were determined for duplicate concentrations. The mean A450 values were normalized to the mean of four maximum-binding controls (no competitor added) (B-MAX). The normalized values were subjected to a four parameter curve fit algorithm [Rodbard et al., Int.

[2] = target: T2, Human fibrinogen receptor (αIIb β3) (Homo sapiens, UniProt P05106+P08514); test: Purified IIb/IIIa receptor assay (solid phase receptor assay); settings: inhibition of binding of biotinylated human vitronectin (1 nM) to purified receptor; Table I
T2 construct: Human fibrinogen receptor (αIIb β3) was purified from outdated platelets; from tissue; host or cells: human outdated platelets
T2 sequence (P08514 32-887 limits assumed): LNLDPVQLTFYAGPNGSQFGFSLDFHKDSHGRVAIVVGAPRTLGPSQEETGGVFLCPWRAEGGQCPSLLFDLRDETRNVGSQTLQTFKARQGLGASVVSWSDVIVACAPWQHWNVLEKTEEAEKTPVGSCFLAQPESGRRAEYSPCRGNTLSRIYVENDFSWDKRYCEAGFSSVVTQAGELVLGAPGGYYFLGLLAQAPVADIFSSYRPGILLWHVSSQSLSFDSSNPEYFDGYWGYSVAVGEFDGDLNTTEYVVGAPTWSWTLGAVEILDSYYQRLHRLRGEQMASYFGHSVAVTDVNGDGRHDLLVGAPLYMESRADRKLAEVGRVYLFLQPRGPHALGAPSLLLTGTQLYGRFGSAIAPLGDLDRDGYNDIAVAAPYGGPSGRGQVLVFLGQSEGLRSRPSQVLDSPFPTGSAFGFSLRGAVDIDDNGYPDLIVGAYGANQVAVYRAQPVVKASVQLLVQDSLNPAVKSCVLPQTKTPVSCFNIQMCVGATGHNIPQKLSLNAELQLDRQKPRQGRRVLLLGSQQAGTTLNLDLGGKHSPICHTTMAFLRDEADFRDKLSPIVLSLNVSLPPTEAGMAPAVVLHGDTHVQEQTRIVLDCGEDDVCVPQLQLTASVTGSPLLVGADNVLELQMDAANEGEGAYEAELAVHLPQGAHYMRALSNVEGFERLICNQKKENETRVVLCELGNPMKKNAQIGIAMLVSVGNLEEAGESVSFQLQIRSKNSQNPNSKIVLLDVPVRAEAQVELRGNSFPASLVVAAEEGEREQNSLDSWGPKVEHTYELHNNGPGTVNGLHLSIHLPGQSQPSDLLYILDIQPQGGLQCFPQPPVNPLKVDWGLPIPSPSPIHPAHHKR
T2 sequence (P08514 891-1039 limits assumed): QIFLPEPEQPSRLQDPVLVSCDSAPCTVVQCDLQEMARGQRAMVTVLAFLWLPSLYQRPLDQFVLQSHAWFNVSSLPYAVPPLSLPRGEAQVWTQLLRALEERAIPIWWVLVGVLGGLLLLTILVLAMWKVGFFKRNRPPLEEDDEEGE
T2 sequence (P05106 27-788): as the sequence (P05106 27-788) above
Description: as §1
Human fibrinogen receptor (αIIb β3) was purified from outdated platelets. (Pytela, R., Pierschbacher, M. D., Argraves, S., Suzuki, S., and Rouslahti, E. "Arginine-Glycine-Aspartic acid adhesion receptors", Methods in Enzymology 144(1987):475-489.) Human vitronectin was purified from fresh frozen plasma as described in Yatohgo, T., Izumi, M., Kashiwagi, H., and Hayashi, M., "Novel purification of vitronectin from human plasma by heparin affinity chromatography," Cell Structure and Function 13(1988):281-292. Biotinylated human vitronectin was prepared by coupling NHS-biotin from Pierce Chemical Company (Rockford, Ill.) to purified vitronectin as previously described. (Charo, I. F., Nannizzi, L., Phillips, D. R., Hsu, M. A., Scarborough, R. M., "Inhibition of fibrinogen binding to GP IIb/IIIa by a GP IIIa peptide", J. Biol. Chem. 266(3) (1991): 1415-1421.) Assay buffer, OPD substrate tablets, and RIA grade BSA were obtained from Sigma (St. Louis, Mo.). Anti-biotin antibody was obtained from Calbiochem (La Jolla, Calif.). Linbro microtiter plates were obtained from Flow Labs (McLean, Va.). ADP reagent was obtained from Sigma (St. Louis, Mo.).
as §2
This assay is essentially the same reported in Niiya, K., Hodson, E., Bader, R., Byers-Ward, V. Koziol, J. A., Plow, E. F. and Ruggeri, Z. M., "Increased surface expression of the membrane glycoprotein IIb/IIIa complex induced by platelet activation: Relationships to the binding of fibrinogen and platelet aggregation", Blood 70 (1987):475-483. The purified human fibrinogen receptor (αIIb β3) was diluted from stock solutions to 1.0 μg/mL in Tris-buffered saline containing 1.0 mM Ca^++, Mg^++, and Mn^++, pH 7.4 (TBS^+++). The diluted receptor was immediately transferred to Linbro microtiter plates at 100 μL/well (100 ng receptor/well). The plates were sealed and incubated overnight at 4° C. to allow the receptor to bind to the wells. All remaining steps were at room temperature. The assay plates were emptied and 200 μL of 1% RIA grade BSA in TBS^+++ (TBS^+++ /BSA) were added to block exposed plastic surfaces. Following a 2 hour incubation, the assay plates were washed with TBS^+++ using a 96 well plate washer. Logarithmic serial dilution of the test compound and controls were made starting at a stock concentration of 2 mM and using 2 nM biotinylated vitronectin in TBS^+++ /BSA as the diluent. This premixing of labeled ligand with test (or control) ligand, and subsequent transfer of 50 μL aliquots to the assay plate was carried out with a CETUS Propette robot; the final concentration of the labeled ligand was 1 nM and the highest concentration of test compound was 1.0×10^-4 M. The competition occurred for two hours after which all wells were washed with a plate washer as before. Affinity purified horseradish peroxidase labeled goat anti-biotin antibody was diluted 1:3000 in TBS^+++ /BSA and 125 μL were added to each well. After 30 minutes, the plates were washed and incubated with […]/H2 O2 substrate in 100 mM/L citrate buffer, pH 5.0. The plate was read with a microtiter plate reader at a wavelength of 450 nm and when the maximum-binding control wells reached an absorbance of about 1.0, the final A450 were recorded for analysis. The data were analyzed using a macro written for use with the EXCEL™ spreadsheet program. The mean, standard deviation, and % CV were determined for duplicate concentrations. The mean A450 values were normalized to the mean of four maximum-binding controls (no competitor added) (B-MAX). The normalized values were subjected to a four parameter curve fit algorithm, [Robard et al., Int.

[3] = inhibition of binding of biotinylated human vitronectin (1 nM) to purified receptor, Table I, read-out: AvB3 IC50

| IC50 [1, 3] [nM] | IC50 [2] [nM] | Compound | IC50 ([1]; positive control included on each plate, read-out: αv β3 antagonist IC50 of positive control) [nM] |
| --- | --- | --- | --- |
| 207 | 15600 | N=C(N)Nc1cccc(C(O)CCc2cccc(/C=C/C(=O)O)c2)c1 (racemic) [Example 96, 3-[3-[3-[3-[(aminoiminomethyl)amino]phenyl]-3-hydroxypropyl]phenyl]propenoic acid, trifluoroacetate salt] | – |
| 79.8 | 2270 | N=C(N)Nc1cccc(C(=O)Nc2ccc(C(=CC(=O)O)c3ccccc3)cc2)c1 (single isomer, unassigned) [Example 58, 3-[4-[[[3-[(aminoiminomethyl)amino]phenyl]-carbonyl]amino]phenyl]-3-phenylpropenoic acid, trifluoroacetate salt] | – |
| 28.8 | 2620 | Cc1cc(/C=C/C(=O)O)cc(Cl)c1NC(=O)c1cccc(NC(=N)N)c1 [Example 15, 3-[4-[[[3-[(aminoiminomethyl)amino]phenyl]carbonyl]-amino]-3-chloro-5-methylphenyl]-2E-propenoic acid, trifluoroacetate salt] | – |
| 50.9 | 25.4 | N=C(N)Nc1cccc(C(=O)Nc2ccc(/C=C/C(=O)O)c3ccccc23)c1 [Example 16, 3-[4-[[[3-[(aminoiminomethyl)amino]phenyl]carbonyl]-amino]naphthalen-1-yl]-2E-propenoic acid, trifluoroacetate salt] | – |
| 0.46 | 181 | Cc1cc(/C=C/C(=O)O)ccc1NC(=O)c1cccc(NC2=NCCCN2)c1 [Example 18, 3-[3-methyl-4-[[[3-[(1,4,5,6-tetrahydropyrimidin-2-yl)amino]phenyl]carbonyl]amino]phenyl]propenoic acid, trifluoroacetate salt] | – |
| 23.3 | – | N=C(N)Nc1cccc(C(=O)Nc2ccc(/C=C/C(=O)O)c(Cl)c2)c1 [Example 28, 3-[4-[[[3-[(aminoiminomethyl)amino]phenyl]carbonyl]-amino]-2-chlorophenyl]propenoic acid, trifluoroacetate salt] | – |

The remaining lines, values behind:

| Compound | IC50 [1, 3] [nM] | IC50 [2] [nM] | IC50 ([1]; positive control included on each plate, read-out: αv β3 antagonist IC50 of positive control) [nM] |
| --- | --- | --- | --- |
| COC(=O)/C=C/c1cccc(CNC(=O)c2cccc(NC(=N)N)c2)c1 [Example 1, methyl 3-[3-[[[[3-[(aminoiminomethyl)-amino]phenyl]carbonyl]amino]methyl]phenyl]-2-propenoate, trifluoroacetate salt] | 15800 | > 100000 | – |
| N=C(N)Nc1cccc(C(=O)NCc2cccc(/C=C/C(=O)O)c2)c1 [Example 2, 3-[3-[[[[3-[(aminoiminomethyl)amino]phenyl]carbonyl]amino]methyl]phenyl]-2-propenoic acid, trifluoroacetate salt] | 13 | 657 | – |
| CCOC(=O)/C=C/c1ccc(NC(=O)c2cccc(NC(=N)N)c2)cc1 [Example 3, ethyl 3-[4-[[[3-[(aminoiminomethyl)amino]phenyl]carbonyl]amino]phenyl]-2-propenoate, monohydrate trifluoroacetate salt] | 29000 | 32200 | – |
| N=C(N)Nc1cccc(C(=O)Nc2ccc(/C=C/C(=O)O)cc2)c1 [Example 4, 3-[4-[[[3-[(aminoiminomethyl)amino]phenyl]carbonyl]amino]phenyl]-2-propenoic acid, trifluoroacetate salt] | 10.6 | 7.05 | – |
| Cc1cc(/C=C/C(=O)O)ccc1NC(=O)c1cccc(NC(=N)N)c1 [Example 5, 3-[4-[[[3-[(arainoiminomethyl)amino]phenyl]carbonyl]amino]-3-methylphenyl]propenoic acid, trifluoroacetate salt] | 4.01 | 9.58 | – |
| CCc1cc(/C=C/C(=O)O)ccc1NC(=O)c1cccc(NC(=N)N)c1 [Example 7, 3-[4-[[[3-[(aminoiminomethyl)amino]phenyl]carbonyl]amino]-3-ethylphenyl]propenoic acid, trifluoroacetate salt] | 2.95 | 15.1 | – |
| N=C(N)Nc1cccc(C(=O)Nc2ccc(/C=C/C(=O)O)cc2Cl)c1 [Example 9, 3-[4-[[[3-[(aminoiminomethyl)amino]phenyl]-carbonyl]amino]3-chlorophenyl]propenoic acid, trifluoroacetate salt] | 3.46 | 11 | – |
| N=C(N)Nc1cccc(C(=O)Nc2ccc(/C=C/C(=O)O)cc2F)c1 [Example 11, 3-[4-[[[3-[(aminoiminomethyl)aminolphenyl]carbonyl]-amino]-3-fluorophenyl]-2E-propenoic acid, trifluoroacetate salt] | 7.07 | 14.1 | – |
| N=C(N)Nc1cccc(C(=O)Nc2ccc(/C=C/C(=O)O)cc2C(F)(F)F)c1 [Example 12, 3-[4-[[[3-[(aminoiminomethyl)amino]phenyl]carbonyl]amino]-3-(trifluoromethyl)phenyl]-2E-propenoic acid, trifluoroacetate salt] | 155 | 670 | – |
| Cc1cc(/C=C/C(=O)O)cc(C)c1NC(=O)c1cccc(NC(=N)N)c1 [Example 13, 3-[4-[[[3-[(aminoiminomethyl)amino]phenyl]carbonyl]-amino]-3,5-dimethylphenyl]-2E-propenoic acid, trifluoroacetate salt] | 23.1 | 2160 | – |
| N=C(N)NCCCCC(=O)NCC(=O)NC(CC(=O)O)c1cccnc1 (stereo not drawn) [β-[[2-[[5-[(aminoiminomethyl)amino]-1-oxopentyl]amino]-1-oxoethyl]amino]-3-pyridinepropanoic acid] | – | – | 3 to 10 |
